Key:
[1] = test system: experimental autoimmune encephalomyelitis (EAE); experiment: Experimental autoimmune encephalomyelitis (EAE) model; assay type: in vivo; conditions: oral, 0.03, 0.1 and 1 mg/kg, Day 0 to Day 30, C57BL/6 mice
Description: Eighty female C57BL/6 mice were randomly assigned into eight groups based on body weight and immunized in this study. Each group consisted of ten (10) mice. To induce the disease, MOG 35-55 (MOG, myelin oligo-dendrocyte glycoprotein) was dissolved in saline to a concentration of 2 mg/mL, and was emulsified in modified complete Freund's Adjuvant (CFA). Mice were anesthetized with isoflurane and were then injected with 100 μL of emulsion subcutaneously into the shaved backs of the mice at three sites, one along the midline of the back between the shoulders, and two on each side of the midline on the lower back. Pertuxus toxin (200 ng in 200 μL of PBS) was administered i.p. on the day of immunization and 48 hours after for all groups. EAE development was assessed by clinically scoring of the mice once daily from Day 0 to Day 30 post immunization.

human S1P3 = human S1P3 (Homo sapiens, UniProt Q99500); experiment: Internalization effect experiment of S1P3 (CHO-S cells); assay type: cell-based
Description: CHO—S cells bearing human S1P1 with Myc tag were harvested and then adjusted to a density of one million cells per mL by Dulbecco's modified Eagle's medium (DMEM). […] After incubation, the mixture was centrifuged at 800 RPM for 5 minutes to obtain the cells. The cells were resuspended in FACS buffer (PBS containing 1% BSA), and Myc antibody labelled with fluorescein isothiocyanate (FITC) (from Californian Miltenyi Biotec GmbH, USA) was added in and incubated for 1 hour on ice. The cells were washed, resuspended in pre-cooled FACS buffer and analysed by FACS Calibur flow cytometry.
CHO—S cells expressing human S1P3 were used to perform internalization detection test. Besides cells, experimental method was the same with the method of the internalized detection experiment of S1P1.

[2] = test system: heart rate and QT interval; experiment: Telemetry assay of cardiovascular function in conscious beagle dog; assay type: in vivo; conditions: within 24 hours after administration
Description: To determine whether Compound 2 has an effect on heart rate and QT interval, the compound was evaluated in a telemetry assay in conscious beagle dog.
An appropriate amount of CMC-Na was prepared as a 0.5% CMC-Na (w/v) solution with sterilized water for injection. The solution was prepared one day before administration.
Solutions of Compound 2 (samples) with the concentration of 2, 6 and 20 mg/mL were prepared one day before administration as follows. An appropriate amount of Compound 2 was added into an appropriate amount of 0.5% CMC-Na solution. The obtained mixture was emulsified and homogenized on an emulsification isotropic machine. Theoretical concentrations of Compound 2 in the prepared sample solutions were 2, 6 and 20 mg/mL.
A total of 8 animals and a Double Latin squared experimental design were used in this experiment. Administration cycles were separated by 3-5 days. One day before each administration cycle, the animals were weighted and fasted overnight. On the day of administration, telemetry system (Implantable physiological signal telemetry system 1, Data Science International Inc., USA) was turned on, test parameters were set, implants were activated and physiological indexes of the animals were recorded. […] Parameters would be analyzed using artificial set after the collection was completed. The data was, firstly, analyzed by PONEMAH Version 4.8 software automatically, and then checked point by point artificially for selected values. […] Time at which values were selected were recorded.
Statistical software SPSS13.0 was used to process data in this experiment. […] Indexes of blood pressure, electrocardiogram, respiration and body temperature were expressed as “mean±standard error”, and then analyzed according to following procedure: firstly, homogeneity test was performed on the data by use of Levene Test, and if the data was uniform ([…]), single-factor variance analysis was performed; and if the result of variance analysis was significant (P≤0.05), Dunnett's multiple comparison was performed on difference between vehicle group and sample group. […]

human S1P3, sequence (Q99500 whole entry): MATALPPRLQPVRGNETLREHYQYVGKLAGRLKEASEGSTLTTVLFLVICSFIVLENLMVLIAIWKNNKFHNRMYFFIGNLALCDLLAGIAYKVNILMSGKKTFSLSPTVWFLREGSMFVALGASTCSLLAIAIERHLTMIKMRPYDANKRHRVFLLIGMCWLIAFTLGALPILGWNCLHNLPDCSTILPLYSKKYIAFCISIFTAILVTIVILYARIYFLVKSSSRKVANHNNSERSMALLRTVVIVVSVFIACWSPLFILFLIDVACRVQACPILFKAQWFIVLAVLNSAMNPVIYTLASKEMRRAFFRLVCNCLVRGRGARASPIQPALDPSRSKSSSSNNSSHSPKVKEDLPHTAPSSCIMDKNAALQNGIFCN

## CC(C)Cc1ccc(-c2nc(-c3ccc(CN4CC(C(=O)O)C4)c(F)c3)no2)cc1 [Compound 2, 1-{2-fluoro-4-[5-(4-isobutylphenyl)-1,2,4-oxadiazol-3-yl]-benzyl}-3-azetidine carboxylic acid]
[1]
  development of EAE (clinical score): effectively inhibited development of EAE
Human S1P3; CHO-S cells expressing human S1P3, in words
  internalization activation effect on S1P3 subtype: no internalization activation effect on S1P3 subtype
Human S1P3; CHO-S cells expressing human S1P3, read-out: Receptor Internalization (EC50) S1P3
  EC50: > 1 µM
[2]
  QT interval versus vehicle: no significant difference
  QTcF interval versus vehicle: no significant difference
  heart rate versus vehicle: no significant difference
